Where two headings read alike, the source gives them in different places.
Key:
[1] = target: hDOR (Homo sapiens, UniProt P41143); experiment: Radioligand binding assay (Eurofins Cerep), [3H]DADLE displacement
[2] = target: T1, hMOR (Homo sapiens, UniProt P35372); experiment: cell-based; set-up: expressed in transfected cells; conditions: CHO
[3] = target: T2, α2C adrenergic receptor (Homo sapiens, UniProt P18825); experiment: Radioligand binding assay (Eurofins Cerep), [3H]RX 821002 displacement
T2 construct: Eurofins Cerep (contract screening)
T2 sequence (P18825 1-462): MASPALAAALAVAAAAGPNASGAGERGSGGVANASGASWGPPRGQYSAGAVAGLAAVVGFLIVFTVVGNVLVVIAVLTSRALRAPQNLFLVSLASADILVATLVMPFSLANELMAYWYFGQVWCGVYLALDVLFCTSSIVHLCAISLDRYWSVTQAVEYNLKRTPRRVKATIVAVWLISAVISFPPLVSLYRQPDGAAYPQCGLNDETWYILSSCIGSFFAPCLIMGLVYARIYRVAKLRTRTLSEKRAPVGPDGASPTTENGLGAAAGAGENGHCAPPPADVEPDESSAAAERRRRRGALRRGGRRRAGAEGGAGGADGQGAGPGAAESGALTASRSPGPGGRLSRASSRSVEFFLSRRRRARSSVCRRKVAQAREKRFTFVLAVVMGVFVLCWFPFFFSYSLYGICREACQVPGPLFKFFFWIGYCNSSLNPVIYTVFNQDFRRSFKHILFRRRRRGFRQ

[4] = target: T1, hMOR; experiment: Radioligand binding assay (Eurofins Cerep), [3H]DAMGO displacement
[5] = target: T3, α2A adrenergic receptor (Homo sapiens, UniProt P08913); experiment: Radioligand binding assay (Eurofins Cerep), [3H]RX 821002 displacement
T3 construct: Eurofins Cerep (contract screening)
T3 sequence (P08913 1-465): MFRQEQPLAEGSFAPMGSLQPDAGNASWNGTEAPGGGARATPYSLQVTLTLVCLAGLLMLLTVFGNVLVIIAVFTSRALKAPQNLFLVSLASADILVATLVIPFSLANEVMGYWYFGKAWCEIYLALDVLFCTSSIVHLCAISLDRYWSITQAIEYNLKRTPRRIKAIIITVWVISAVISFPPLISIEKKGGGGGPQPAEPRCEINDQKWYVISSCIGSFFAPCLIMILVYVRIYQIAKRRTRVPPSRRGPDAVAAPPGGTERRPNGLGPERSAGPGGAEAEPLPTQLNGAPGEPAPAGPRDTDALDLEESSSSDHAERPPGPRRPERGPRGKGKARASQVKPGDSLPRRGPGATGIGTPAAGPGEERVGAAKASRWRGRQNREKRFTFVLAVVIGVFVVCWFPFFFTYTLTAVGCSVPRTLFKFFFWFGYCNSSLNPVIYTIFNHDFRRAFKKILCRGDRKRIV

[6] = target: hKOR (Homo sapiens, UniProt P41145); experiment: Radioligand binding assay (Eurofins Cerep), [3H]U69,593 displacement
Chain of hKOR (P41145 whole entry): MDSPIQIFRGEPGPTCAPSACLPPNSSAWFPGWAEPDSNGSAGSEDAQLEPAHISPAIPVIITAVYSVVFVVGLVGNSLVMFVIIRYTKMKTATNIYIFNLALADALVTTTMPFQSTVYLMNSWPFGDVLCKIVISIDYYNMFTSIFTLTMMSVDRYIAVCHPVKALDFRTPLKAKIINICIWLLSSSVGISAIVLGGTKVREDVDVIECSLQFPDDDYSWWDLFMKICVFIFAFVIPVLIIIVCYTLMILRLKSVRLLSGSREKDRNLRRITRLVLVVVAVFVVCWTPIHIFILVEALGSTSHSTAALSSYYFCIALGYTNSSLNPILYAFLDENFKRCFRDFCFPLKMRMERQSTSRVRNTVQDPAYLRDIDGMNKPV

[7] = Metabolic stability in rat liver microsomes; type: in vitro ADME; conditions: in vitro intrinsic clearance in RLM scaled to whole organ (rat)
Description: In vitro metabolic stability of each compound was determined using rat liver microsomes in triplicate. Verapamil was used as a positive control to check the activity of the microsomes. The incubation mixtures consisted of rat liver microsomes (1 mg microsomal protein/ml), substrate (1 μM), and reduced NADPH (1 mM) in a total volume of 0.4 ml potassium phosphate buffer (50 mM, pH 7.4). Reactions were initiated with the addition of NADPH and kept in an incubator shaker at 37° C. Aliquots of 25 μl were withdrawn at 0, 5, 10, 15, 30, and 60 min and mixed with 125 μl of acetonitrile with formic acid (0.1% v/v) containing phenacetin (50 ng/ml; internal standard) for the termination of the reaction. The samples were then vortex mixed and filtered through a […] 96-well membrane filtration plate under centrifugation at speed of 2000×g for 5 min at 4° C. The filtrates were subjected to UPLC-mass spectrometry (MS/MS) analysis.
The intrinsic clearance of the compounds was calculated using a half-life employing the ‘substrate depletion’ approach. The apparent half-life was calculated from the pseudo-first-order rate constants obtained by linear regression of log (concentration) and time plots. The in vitro intrinsic clearance of IFN was estimated using the formula: […]
Where k is the slope of the line obtained by plotting the natural logarithmic of the percentage of parent remaining versus time and V is the volume of incubation.
The in vitro intrinsic clearance was scaled to whole-organ (hepatic) in vivo intrinsic CL (CLint,H) using the scaling factors available in the literature using equation (Mahmood I. Application of allometric principles for the prediction of pharmacokinetics in human and veterinary drug development. Advanced drug delivery reviews, 2007, 59(11), 1177-1192)
MPPGL represents the microsomal protein per gram of Sprague Dawley rat liver (45 mg/g) and liver weight per kg body weight was 40 g/kg.

[8] = target: T1, hMOR; experiment: Cyclic adenosine 3′,5′-monophosphate (cAMP) assay in hMOR-CHO cells; type: cell-based; conditions: N=1, control agonist DAMGO
[9] = Table 3-1, 3 independent experiments, read-out: Ki (nM ± SEM) DOR
[10] = Table B1′, read-out: DOR Ki ± SEM
[11] = Ki (nM ± SEM) a2C-AR, Table 3-1, 3 independent experiments
[12] = Table 3-1, 3 independent experiments, read-out: Ki (nM ± SEM) a2A-AR
[13] = Table B1′, read-out: alpha2A Ki ± SEM
[14] = Table 3-1, 3 independent experiments, read-out: Ki (nM ± SEM) KOR
[15] = Table B1′, read-out: KOR Ki ± SEM
[16] = Table A1, data summary #1, read-out: KOR Ki ± SEM
[17] = Table A4, data summary #2, read-out: KOR Ki ± SEM

Chain of hDOR (P41143 whole entry): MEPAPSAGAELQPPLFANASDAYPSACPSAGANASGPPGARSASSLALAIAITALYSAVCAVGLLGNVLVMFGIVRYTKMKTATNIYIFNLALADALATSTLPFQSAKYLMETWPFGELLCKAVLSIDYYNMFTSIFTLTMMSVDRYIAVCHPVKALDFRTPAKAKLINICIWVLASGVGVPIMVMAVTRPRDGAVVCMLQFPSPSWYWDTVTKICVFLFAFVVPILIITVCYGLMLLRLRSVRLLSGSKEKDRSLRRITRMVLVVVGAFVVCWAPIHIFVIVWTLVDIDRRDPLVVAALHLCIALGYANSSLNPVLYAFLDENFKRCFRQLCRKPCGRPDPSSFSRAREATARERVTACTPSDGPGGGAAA
T1 sequence (P35372 whole entry): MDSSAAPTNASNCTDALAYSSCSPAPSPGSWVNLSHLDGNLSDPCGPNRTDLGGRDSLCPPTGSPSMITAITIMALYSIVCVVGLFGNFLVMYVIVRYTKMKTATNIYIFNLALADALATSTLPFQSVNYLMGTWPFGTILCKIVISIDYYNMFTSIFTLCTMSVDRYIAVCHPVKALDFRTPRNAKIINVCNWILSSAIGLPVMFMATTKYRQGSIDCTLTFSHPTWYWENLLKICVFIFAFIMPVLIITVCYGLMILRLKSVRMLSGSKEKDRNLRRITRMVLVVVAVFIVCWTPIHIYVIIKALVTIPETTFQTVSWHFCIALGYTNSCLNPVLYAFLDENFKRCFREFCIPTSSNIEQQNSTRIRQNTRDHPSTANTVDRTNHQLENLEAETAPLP

Compound	Ki [1, 9]	Ki [1, 10]	Emax ([2]; read-out: MOR Emax ± SEM (%))	Ki [3, 11]	Ki [5, 12]	Ki [5, 13]	Ki [6, 14]	Ki [6, 15]	Ki [6, 16]	Ki [6, 17]	also measured
CC[C@@H]1CN2CCc3c([nH]c4ccccc34)[C@@H]2C[C@@H]1/C(=C\OC)C(=O)OC [Corynantheidine, reference compound]	2790 ± 171 nM	2410 ± 1200 nM	8.32 ± 3.4%	135 ± 12.5 nM	351 ± 58.7 nM	68 ± 12 nM	4060 ± 969 nM	1030 ± 162 nM	–	–	SR: Selectivity Ratio (KiMOR/Kiα2A) ([4]; Table 3-1): 0.97; Ki ([4]; Table 3-7, human MOR, read-out: MOR Ki (nM ± SEM)): 450 ± 100 nM; Ki ([4]; Table B1′, read-out: MOR Ki ± SEM): 2520 ± 372 nM
CC[C@@H]1CN2CCc3c([nH]c4cccc(OC)c34)[C@@H]2C[C@@H]1/C(=C\OC)C(=O)OC [Mitragynine, mitragynine, reference compound]	6800 ± 721 nM	6800 ± 721 nM	3.97 ± 9.5%	4040 ± 417 nM	4090 ± 273 nM	4090 ± 273 nM	1530 ± 485 nM	1530 ± 143 nM	1530 nM	264 nM	Whole liver clearance, CL int, H [7]: 35.5 mL/min/kg; Ki ([1]; Table A1, data summary #1, read-out: DOR Ki ± SEM): 6800 nM; Ki ([1]; Table A4, data summary #2, read-out: DOR Ki ± SEM): 1950 nM; Emax ([2]; read-out: MOR Emax ± SEM (% DAMGO), Table A1, data summary #1): 3.97%; Ki ([3]; Alpha2C Ki ± SEM (nM), Table A1, data summary #1): 4040 nM; Ki ([3]; Alpha2C Ki ± SEM (nM), Table B2, mean ± SEM, 3 independent experiments): 4090 ± 372 nM; Ki ([5]; Table A1, data summary #1, read-out: Alpha2A Ki ± SEM): 4090 nM; Ki ([5]; Table A4, data summary #2, read-out: Alpha2A Ki ± SEM): 1350 nM; Ki ([5]; Table B1, mean ± SEM, 3 independent experiments, read-out: Alpha2A Ki ± SEM): 709 ± 91.2 nM; Ki ([5]; Table B2, mean ± SEM, 3 independent experiments, read-out: Alpha2A Ki ± SEM): 709 ± 91.2 nM
CC[C@@H]1CN2CCc3c([nH]c4cccc(OC)c34)[C@@H]2C[C@@H]1/C(=C\OC)C(=O)Nc1ccccc1 [SUSM-528, (E)-2-((2S,3S,12bS)-3-ethyl-8-methoxy-1,2,3,4,6,7,12,12b-octahydroindolo[2,3-a]quinolizin-2-yl)-3-methoxy-N-phenylacrylamide]	–	–	–	–	–	–	–	–	> 10000 nM	6510 ± 4660 nM	Ki ([1]; DOR Ki ± SEM (nM), Table A4, data summary #2): > 10000 nM; Ki ([4]; Table A1, data summary #1, read-out: MOR Ki ± SEM): 7770 ± 3620 nM; Ki ([4]; Table A4, data summary #2, read-out: MOR Ki ± SEM): 498 ± 118 nM; Ki ([5]; Alpha2A Ki ± SEM (nM), Table A1, data summary #1): 6580 ± 2320 nM; Ki ([5]; Alpha2A Ki ± SEM (nM), Table A4, data summary #2): 6580 ± 2320 nM; functional activity in cAMP assay [8]: agonist, however its potency was less than DAMGO; functional activity in cAMP assay ([8]; listed as SUSM 528): agonist, but less potent than DAMGO
